# Measured values taken from patent US20250207109A1, “ENGINEERED SPLIT DHFR-BASED METHODS AND SYSTEMS FOR SELECTING CELLS THAT HAVE STABLY ACQUIRED A HETEROLOGOUS POLYNUCLEOTIDE” (DNA Twopointo, Inc., priority 2022, published 2025).
# What was measured:
# Type in all cases: cell-based, human
# FKBP12.6tr_F36V = assay: Split DHFR complementation assay to show rimiducid-dependent dimerization; details: cells expressing FKBP12.6tr_F36V-DHFR fragment fusions; rimiducid 100 nM, methotrexate 0.2 μM
# Text: The Split DHFR concept was employed as the basis of a test of whether a fragment of the human protein FKBP12.6 could dimerize in the presence of rimiducid. For this purpose, an F36V substitution was introduced into FKBP12.6 in an effort to render it sensitive to rimiducid-dependent dimerization as is the case for the paralogous protein FKBP12. See Clackson T, Yang W, Rozamus L W, Hatada M, Amara J F, Rollins C T, Stevenson L F, Magari S R, Wood S A, Courage N L, Lu X, Cerasoli F, Gilman M, Holt D A. Redesigning an FKBP-ligand interface to generate chemical dimerizers with novel specificity. Proc Natl Acad Sci USA. 1998; 95 (18): 10437-42. doi: 10.1073/pnas.95.18.10437.
# The truncated version of FKBP12.6 carrying the F36V substitution (SEQ ID NO: 192) was fused at its carboxy terminus to the two fragments of murine DHFR as in Example 1, with one of the fragments bearing the L22F and F31S substitutions to confer methotrexate resistance (SEQ ID NOs: 190 and 191). […]
# (§1) At left is the result for cells expressing the DHFR fragments fused to the P7A/P8A heterodimerizing coiled-coil peptides. […] Untransfected cells were analyzed under identical conditions as a control (at right).
# Jurkat T lymphoma cells = assay: Methotrexate selection of Jurkat cells co-transfected with pairs of transposons encoding mouse split DHFR fragments, flow cytometry for mTagBFP2/plobRFP; details: 0.1 μM methotrexate; compared with coiled coil pairs
# Text: Transgenes encoding the six DHFR fusion proteins regulated by the EF1-alpha promoter were each placed in a Leap-In transposon vector that also included a transgene encoding a fluorescent protein. For the transposons expressing the amino-terminal piece of DHFR, the fluorescent protein was mTagBFP2. For the transposons expressing the carboxy-terminal piece, the fluorescent protein was plobRFP. These fluorescent protein transgenes were included so that cells carrying the two kinds of transposons could be readily identified by flow cytometry or fluorescent microscopy.
# Jurkat T lymphoma cells were transfected with the appropriate pairs of transposons (i.e., transposons encoding both an amino- and carboxy-terminal piece of DHFR fused to leucine zipper or coiled coil sequences that should associate stably with one another). The ThermoFisher Neon® electroporator was used with 100 μl tips and three pulses of 1350V, each pulse 10 mS in length. […]
# Successful methotrexate selection of cells carrying both transfected transposons was evident by the fact that the majority of cells expressed both mTagBFP2 and plobRFP. The cells were analyzed at ten days or six weeks after transfection as indicated.
# Jurkat cells = assay: Split DHFR complementation assay, methotrexate selection of Jurkat cells expressing DHFR fragment fusion proteins; details: 0.2 μM methotrexate, two weeks; rimiducid 100 nM for FKBP12.6tr pair
# Text: The truncated version of FKBP12.6 carrying the F36V substitution (SEQ ID NO: 192) was fused at its carboxy terminus to the two fragments of murine DHFR as in Example 1, with one of the fragments bearing the L22F and F31S substitutions to confer methotrexate resistance (SEQ ID NOs: 190 and 191).
# As a control, the P7A/P8A pair of DHFR fragment fusion proteins (involving SEQ ID Nos: 188 and 189) was also used. Whereas the P7A/P8A pair of constructs co-expressed the DHFR fragments with a red fluorescent protein (RFP; plobRFP) or a blue fluorescent protein (BFP; mTagBFP2), both FKBP12.6 tr transposons carried a BFP transgene.
# Jurkat cells were co-transfected by electroporation (ThermoFisher Neon; 100 μl tips; 1350V, three 10 ms pulses) with pairs of plasmids carrying transposons encoding the two DHFR fragments (7.5 μg of each) together with mRNA encoding the Leap-In Transposase® enzyme (2 μg). The cells were plated in RPMI-1640 medium supplemented with fetal bovine serum (10% vol/vol) and methotrexate (0.2 μM). Rimiducid at 100 nM was added to the medium of cells that had been transfected with the FKBP12.6tr pair of plasmids.
# as §1
molecule,measurement,setting,value
CC[C@H](C(=O)N1CCCC[C@H]1C(=O)O[C@H](CCc1ccc(OC)c(OC)c1)c1cccc(OCC(=O)NCCNC(=O)COc2cccc([C@@H](CCc3ccc(OC)c(OC)c3)OC(=O)[C@@H]3CCCCN3C(=O)[C@@H](CC)c3cc(OC)c(OC)c(OC)c3)c2)c1)c1cc(OC)c(OC)c(OC)c1 [rimiducid],rimiducid dependence of survival in methotrexate,FKBP12.6tr_F36V,the cells failed to thrive when the drug was removed
leucine zipper pair of constructs: GCN4 Leucine Zipper-Linker-Mouse DHFR (1-105; L22F/F31S) and (106-186) fusion pair,average level of red and blue fluorescence of selected cells,Jurkat T lymphoma cells,higher average level of both red and blue fluorescence than the pairs involving the coiled coil sequences
P7A/P8A coiled coil fusion proteins: P7A / P8A Coiled Coil-Linker-Mouse DHFR (1-105; L22F/F31S) and (106-186) fusion pair (protein) chain 1: MGEIAALEAKNAALKAEIAALEAKNAALKAGCGGGGSGGGGSVRPLNCIVAVSQNMGIGKNGDFPWPPLRNESKYFQRMTTTSSVEGKQNLVIMGRKTWFSIPEKNRPLKDRINIVLSRELKEPPRGAHFLAKSLDDALRLIEQPEL chain 2: MKIAALKAENAALEAKIAALKAENAALEAGGCGGGGSGGGGSASKVDMVWIVGGSSVYQEAMNQPGHLRLFVTRIMQEFESDTFFPEIDLGKYKLLPEYPGVLSEVQEEKGIKYKFEVYEKKD,methotrexate resistance / survival of transfected cells,Jurkat cells,conferred methotrexate resistance on the transfected cells
